Source: paper PMC6315506 (Viruses, 2018)

Key:
Details in all cases: 10 µM
HIV-1/H5N1 pseudovirus = assay: organism not typed; assay type: cell-based, influenza A virus A/Goose/Qinghai/59/05 (H5N1)
HIV-1/LASV pseudovirus = assay: microbe, parasite or virus in culture; assay type: cell-based
HIV-1/EBOV pseudovirus = tested on: HIV-1/EBOV pseudovirus
A549 cells = tested on: A549 cells

Compound	Inhibition HIV/H5N1 (HIV-1/H5N1 pseudovirus) [%]	Inhibition HIV/LASV (HIV-1/LASV pseudovirus) [%]	Inhibition HIV/EBOV (HIV-1/EBOV pseudovirus) [%]	Cell Viability (A549 cells) [%]
CN(C)Cc1ccccc1C(O)c1cc2cc(Br)ccc2nc1OCc1cccc2ccccc12 (centres unmarked) [SYL1652]	98.16	97.16	99.94	61.30
CN(C)Cc1cccc(-c2cc3cc(Br)ccc3nc2Sc2cccc(O)c2)c1 [SYL1639]	97.65	98.93	99.85	2.71
Brc1ccc2nc(OCc3cccc4ccccc34)c(-c3ccc(Cn4ccnc4)cc3)cc2c1 [SYL1691]	97.25	57.43	92.17	72.14
COc1cccc(COc2nc3ccc(Br)cc3cc2-c2ccc(CN(C)C)cc2)c1 [SYL1707]	95.43	78.74	99.14	80.79
COc1nc2ccc(Br)cc2cc1C(Nc1ccccc1OCCN(C)C)c1ccccc1 (centres unmarked) [SYL1622]	96.99	83.38	99.12	77.49
CN(C)Cc1cccc(-c2cc3cc(Br)ccc3nc2Oc2ccncc2)c1 [SYL1648]	37.82	89.27	99.91	84.21
CN1CCN(Cc2ccc(-c3cc4cc(Br)ccc4nc3OCc3cccc4ccccc34)cc2)CC1 [SYL1670]	91.10	77.77	99.92	82.37
Brc1ccc2nc(OCc3cccc4ccccc34)c(-c3ccc(N4CCCC4)cc3)cc2c1 [SYL1686]	65.78	90.35	99.92	82.03
CN1CCN(c2ccc(-c3cc4cc(Br)ccc4nc3OCc3cccc4ccccc34)cc2)CC1 [SYL1669]	96.42	92.49	99.94	82.47
CN(C)Cc1ccc(-c2cc3cc(Br)ccc3nc2N2CCCCC2)cc1 [SYL1714]	83.36	51.47	98.67	91.09
CNCCc1ccc(-c2cc3cc(Br)ccc3nc2OCc2cccc3ccccc23)cc1 [SYL1672]	98.01	99.22	99.85	2.06
CN1CCC(c2ccccc2)(C(O)(c2ccccc2)c2ccccc2)CC1 [SYL1661]	5.09	72.11	99.91	77.89
CN1CCN(c2ccc(-c3cc4cc(Br)ccc4nc3OCc3cccc4ccccc34)cn2)CC1 [SYL1687]	31.90	88.94	99.94	78.11
CN(C)CCC=C(c1ccccc1)c1cc2ccccc2nc1Oc1cccc2ccccc12.Cl [SYL1627]	49.35	87.33	99.84	89.09
CN(C)Cc1cccc(-c2cc3ccccc3nc2Oc2cccc3ccccc23)c1 [SYL1637]	97.92	81.65	99.81	80.11
Brc1ccc2nc(OCc3cccc4ccccc34)c(-c3ccc(CN4CCN(Cc5ccccc5)CC4)cc3)cc2c1 [SYL1697]	-5.87	15.89	67.57	90.86
CNCCNCc1ccc(-c2cc3cc(Br)ccc3nc2OCc2cccc3ccccc23)cc1 [SYL1679]	96.95	97.63	99.70	117.07
COc1nc2ccccc2cc1C(O)(Cc1cccc(F)c1)c1ccccc1 (centres unmarked) [SYL1651]	30.01	89.23	99.95	79.56
CN(C)C(=O)Cc1ccc(-c2cc3cc(Br)ccc3nc2OCc2cccc3ccccc23)cc1 [SYL1677]	15.95	29.51	90.04	58.71
CN(C)Cc1ccc(-c2cc3cc(Br)ccc3nc2Oc2ccccc2)cc1 [SYL1676]	36.23	19.98	71.19	89.65
CN(C)CCN1CCN(c2ccc(-c3cc4cc(Br)ccc4nc3OCc3cccc4ccccc34)cc2)CC1 [SYL1710]	97.63	98.64	99.39	1.97
COc1nc2ccc(Br)cc2cc1-c1ccc(CN(C)C)cc1 [SYL1689]	97.51	88.23	99.94	78.79
CN(C)Cc1ccc(-c2cc3cc(Br)ccc3nc2N2CCN(C)CC2)cc1 [SYL1713]	97.68	99.40	99.58	1.24
COc1nc2ccccc2cc1C(Nc1ccccc1N1CCN(C)C1=O)c1ccccc1 (centres unmarked) [SYL1662]	68.52	89.05	99.56	89.06
CN(C)CCCC(O)(c1ccccc1)c1cc2ccccc2nc1Oc1cccc2ccccc12 (centres unmarked) [SYL1635]	97.52	99.31	99.63	11.15
COc1ccc(COc2nc3ccc(Br)cc3cc2-c2ccc(CN(C)C)cc2)cc1 [SYL1706]	54.58	87.40	99.20	82.99
